# Key:
# [1] = tested on: symmetric di-methyl arginine in Z-138 cells; experiment: Z-138 Methylation Assay (In Cell Western for symmetric di-methyl arginine and DNA content); format: cell-based; details: Homo sapiens, In Cell Western methylation, read-out: ICW EC50
# Summary of the method: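 Z-138 cells (50,000 cells/mL) treated with compound 96 h at 37 °C, then fixed and stained for symmetric di-methyl arginine (800 nm) with DRAQ5 DNA counterstain (700 nm) on Licor Odyssey.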
# [2] = target: PRMT5/MEP50 (Homo sapiens (Human), UniProt O14744); experiment: PRMT5 Biochemical Assay (PRMT5/MEP50 enzyme assay on peptide substrate, 3H-SAM Flashplate); details: PRMT5 biochemical assay
# PRMT5/MEP50, sequence (O14744 other isoform, or with tags, fused parts or gaps): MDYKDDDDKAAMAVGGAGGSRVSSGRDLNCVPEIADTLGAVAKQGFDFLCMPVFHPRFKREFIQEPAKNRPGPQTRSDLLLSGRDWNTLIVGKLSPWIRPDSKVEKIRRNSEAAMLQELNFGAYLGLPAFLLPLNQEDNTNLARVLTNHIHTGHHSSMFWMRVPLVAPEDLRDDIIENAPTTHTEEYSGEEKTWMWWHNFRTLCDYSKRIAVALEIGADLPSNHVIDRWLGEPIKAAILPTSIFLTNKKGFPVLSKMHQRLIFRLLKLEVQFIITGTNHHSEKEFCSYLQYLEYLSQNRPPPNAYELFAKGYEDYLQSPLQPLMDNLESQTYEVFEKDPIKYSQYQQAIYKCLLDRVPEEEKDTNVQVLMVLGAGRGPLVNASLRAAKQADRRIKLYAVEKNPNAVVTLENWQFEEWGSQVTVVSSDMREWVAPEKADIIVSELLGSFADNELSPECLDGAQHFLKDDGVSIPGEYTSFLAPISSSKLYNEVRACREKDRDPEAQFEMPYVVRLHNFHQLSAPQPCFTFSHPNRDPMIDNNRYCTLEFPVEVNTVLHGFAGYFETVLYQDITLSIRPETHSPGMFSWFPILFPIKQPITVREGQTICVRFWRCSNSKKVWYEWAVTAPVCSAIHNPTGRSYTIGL
# PRMT5/MEP50, sequence (Q9BQA1 other isoform, or with tags, fused parts or gaps partner): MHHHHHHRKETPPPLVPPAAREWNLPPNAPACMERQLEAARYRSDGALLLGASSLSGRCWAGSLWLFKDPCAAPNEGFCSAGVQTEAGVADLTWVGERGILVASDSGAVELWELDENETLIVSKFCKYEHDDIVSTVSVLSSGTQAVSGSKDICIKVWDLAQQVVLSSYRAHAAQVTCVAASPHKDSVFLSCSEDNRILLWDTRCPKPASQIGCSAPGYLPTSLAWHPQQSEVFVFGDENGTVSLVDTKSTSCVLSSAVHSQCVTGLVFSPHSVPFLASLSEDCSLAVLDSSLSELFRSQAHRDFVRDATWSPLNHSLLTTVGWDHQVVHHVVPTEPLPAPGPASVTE
# Summary of the method: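 Radiometric methylation of a biotin-tagged H4(1-15) peptide by human PRMT5/MEP50 from baculovirus/Sf9, with ³H-SAM incorporation read on streptavidin Flashplates. Buffer: Bicine pH 7.6, TCEP, BSG, Tween20; compound preincubated 30 min at 25 °C; stopped with 600 µM final unlabeled SAM. DMSO and SAH controls; IC50 from fitted % inhibition.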
# [3] = tested on: Z-138 cell line; experiment: Z-138 Proliferation Assay (Cell Titer Glo, 5 days); format: cell-based; details: Homo sapiens, 120 h; Z-138 cells, 5 days, Cell Titer Glo; read-out: Proliferation EC50
# Summary of the method: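 Z-138 cells exposed 5 days at 37 °C, 5% CO2 to nine-point 3-fold dilutions (final top 20 μM, 0.2% DMSO), in triplicate. Viability read as ATP by CellTiter-Glo luminescence; IC50 from 4-parameter fit of normalized dose-response curves.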
SMILES,EC50 [1] [nM],IC50 [2] [nM],EC50 [3] [nM]
CC(=O)N1CC(Nc2cc(C(=O)NC[C@H](O)CN3CCc4ccccc4C3)nc(C)n2)C1 [Compound 450],< 100,< 100,101 to 1000
O=C(NC[C@H](O)CN1CCc2ccccc2C1)c1cc(NC2CNC2)nc(N2CCNCC2)n1 [Compound 453],> 1000,< 100,> 20000
O=C(NC[C@H](O)CN1CCc2ccccc2C1)c1cc(NC2CNC2)nc(C(F)(F)F)n1 [Compound 456],101 to 1000,< 100,101 to 1000
CC(=O)N1CC(Nc2cc(C(=O)NC[C@H](O)CN3CCc4ccccc4C3)nc(C(C)C)n2)C1 [Compound 457],< 100,< 100,< 100
CCC(=O)N1CCN(c2nc(NC3COC3)cc(C(=O)NC[C@H](O)CN3CCc4ccccc4C3)n2)CC1 [Compound 462],< 100,< 100,< 100
CC(C)C(=O)N1CCN(c2nc(NC3COC3)cc(C(=O)NC[C@H](O)CN3CCc4ccccc4C3)n2)CC1 [Compound 463],< 100,< 100,< 100
CCN1CCN(c2nc(NC3CNC3)cc(C(=O)NC[C@H](O)CN3CCc4ccccc4C3)n2)CC1 [Compound 466],101 to 1000,< 100,1000 to 10000
CC(C)Oc1nc(NC2CNC2)cc(C(=O)NC[C@H](O)CN2CCc3ccccc3C2)n1 [Compound 467],101 to 1000,< 100,101 to 1000
CCCC(=O)N1CCC(Nc2cc(C(=O)NC[C@H](O)CN3CCc4ccccc4C3)ccn2)CC1 [Compound 468],< 100,< 100,< 100
CC(C)C(=O)N1CCC(Nc2cc(C(=O)NC[C@H](O)CN3CCc4ccccc4C3)ccn2)CC1 [Compound 469],< 100,< 100,< 100
CC(C)(C)C(=O)N1CCC(Nc2cc(C(=O)NC[C@H](O)CN3CCc4ccccc4C3)ccn2)CC1 [Compound 470],< 100,< 100,< 100
CC(C)CC(=O)N1CCC(Nc2cc(C(=O)NC[C@H](O)CN3CCc4ccccc4C3)ccn2)CC1 [Compound 471],< 100,< 100,< 100
O=C(NC[C@H](O)CN1CCc2ccccc2C1)c1ccnc(NC2CCN(C(=O)C3CC3)CC2)c1 [Compound 472],< 100,< 100,< 100
O=C(NC[C@H](O)CN1CCc2ccccc2C1)C1=CC2=NC(CO)CN2C=N1 (stereo partly drawn) [Compound 473],> 1000,101 to 1000,> 20000
CC(=O)N1CC(Nc2cc(C(=O)NC[C@H](O)CN3CCc4ccccc4C3)nc(C(F)(F)F)n2)C1 [Compound 474],< 100,< 100,101 to 1000
CC(=O)N1CC(Oc2cc(C(=O)NC[C@H](O)CN3CCc4ccccc4C3)ncn2)C1 [Compound 475],< 100,< 100,101 to 1000
CN(CCN)c1nc(NC2CNC2)cc(C(=O)NC[C@H](O)CN2CCc3ccccc3C2)n1 [Compound 481],101 to 1000,< 100,1000 to 10000

SMILES,EC50 [1] [nM],IC50 [2] [nM],EC50 [3] [nM]
CNCCN(C)c1nc(NC2CNC2)cc(C(=O)NC[C@H](O)CN2CCc3ccccc3C2)n1 [Compound 482],101 to 1000,< 100,1000 to 10000
CC(=O)N1CCN(c2nc(NC3CNC3)cc(C(=O)NC[C@H](O)CN3CCc4ccccc4C3)n2)CC1 [Compound 483],< 100,< 100,1000 to 10000
CCC(=O)N1CCN(c2nc(NC3CNC3)cc(C(=O)NC[C@H](O)CN3CCc4ccccc4C3)n2)CC1 [Compound 484],< 100,< 100,1000 to 10000
O=C(NC[C@H](O)CN1CCc2ccccc2C1)c1cc(NC2CNC2)nc(N2CCN(C(=O)C3CC3)CC2)n1 [Compound 485],101 to 1000,< 100,1000 to 10000
CCOc1nc(NC2CNC2)cc(C(=O)NC[C@H](O)CN2CCc3ccccc3C2)n1 [Compound 486],101 to 1000,< 100,1000 to 10000
CCc1nc(NC2CNC2)cc(C(=O)NC[C@H](O)CN2CCc3ccccc3C2)n1 [Compound 487],101 to 1000,< 100,1000 to 10000
CCC(=O)N1CC(Nc2cc(C(=O)NC[C@H](O)CN3CCc4ccccc4C3)ccn2)C1 [Compound 488],< 100,< 100,< 100
CC(C)C(=O)N1CC(Nc2cc(C(=O)NC[C@H](O)CN3CCc4ccccc4C3)ccn2)C1 [Compound 489],< 100,< 100,< 100
O=C(NC[C@H](O)CN1CCc2ccccc2C1)c1ccnc(NC2CN(C(=O)C3CC3)C2)c1 [Compound 490],< 100,< 100,< 100
COCCN1CCN(c2nc(NC3COC3)cc(C(=O)NC[C@H](O)CN3CCc4ccccc4C3)n2)CC1 [Compound 496],< 100,< 100,< 100
CC(=O)N1CCN(c2nc(NC3COC3)cc(C(=O)NC[C@H](O)CN3CCc4ccccc4C3)n2)CC1 [Compound 497],< 100,< 100,< 100
O=C(NC[C@H](O)CN1CCc2ccccc2C1)c1cc(NC2COC2)nc(N2CCN(C(=O)C3CC3)CC2)n1 [Compound 498],< 100,< 100,< 100
CS(=O)(=O)N1CCN(c2nc(NC3COC3)cc(C(=O)NC[C@H](O)CN3CCc4ccccc4C3)n2)CC1 [Compound 499],< 100,< 100,101 to 1000
CC(C)N1CCN(c2nc(NC3CNC3)cc(C(=O)NC[C@H](O)CN3CCc4ccccc4C3)n2)CC1 [Compound 500],101 to 1000,< 100,10000 to 50000
COc1nc(NC2CNC2)cc(C(=O)NC[C@H](O)CN2CCc3ccccc3C2)n1 [Compound 501],101 to 1000,< 100,1000 to 10000
O=C(NC[C@H](O)CN1CCc2ccccc2C1)c1cc(NC2CNC2)nc(N2CCC2)n1 [Compound 502],101 to 1000,< 100,1000 to 10000
CCCC(=O)N1CC(Nc2cc(C(=O)NC[C@H](O)CN3CCc4ccccc4C3)ccn2)C1 [Compound 503],< 100,< 100,< 100

# Now from value to compound, other results behind:
EC50 [1] [nM],IC50 [2] [nM],SMILES,EC50 [3] [nM]
< 100,< 100,CC(C)c1nc(NC2COC2)cc(C(=O)NC[C@H](O)CN2CCc3ccccc3C2)n1 [Compound 449],101 to 1000
< 100,< 100,O=C(NC[C@H](O)CN1CCc2ccccc2C1)c1cc(NC2COC2)nc(N2CCCC2)n1 [Compound 451],101 to 1000
< 100,< 100,CCc1nc(NC2COC2)cc(C(=O)NC[C@H](O)CN2CCc3ccccc3C2)n1 [Compound 452],101 to 1000
< 100,< 100,CCN(C)c1nc(NC2COC2)cc(C(=O)NC[C@H](O)CN2CCc3ccccc3C2)n1 [Compound 458],< 100
< 100,< 100,CCCN(C)c1nc(NC2COC2)cc(C(=O)NC[C@H](O)CN2CCc3ccccc3C2)n1 [Compound 459],< 100
< 100,< 100,COCCN(C)c1nc(NC2COC2)cc(C(=O)NC[C@H](O)CN2CCc3ccccc3C2)n1 [Compound 460],< 100
< 100,< 100,O=C(NC[C@H](O)CN1CCc2ccccc2C1)c1cc(NC2COC2)nc(N2CCNCC2)n1 [Compound 461],< 100
< 100,< 100,CC(C)Cc1nc(NC2COC2)cc(C(=O)NC[C@H](O)CN2CCc3ccccc3C2)n1 [Compound 464],< 100
< 100,< 100,COc1nc(NC2COC2)cc(C(=O)NC[C@H](O)CN2CCc3ccccc3C2)n1 [Compound 465],101 to 1000
< 100,< 100,CNCCN(C)c1nc(NC2COC2)cc(C(=O)NC[C@H](O)CN2CCc3ccccc3C2)n1 [Compound 476],101 to 1000
< 100,< 100,CCN1CCN(c2nc(NC3COC3)cc(C(=O)NC[C@H](O)CN3CCc4ccccc4C3)n2)CC1 [Compound 477],< 100
< 100,< 100,CC(C)N1CCN(c2nc(NC3COC3)cc(C(=O)NC[C@H](O)CN3CCc4ccccc4C3)n2)CC1 [Compound 478],< 100
< 100,< 100,O=C(NC[C@H](O)CN1CCc2ccccc2C1)c1cc(NC2COC2)nc(C2CC2)n1 [Compound 480],101 to 1000
< 100,< 100,O=C(NC[C@H](O)CN1CCc2ccccc2C1)c1cc(N[C@H]2C[C@@H](O)C2)ncn1 [Compound 491],101 to 1000
< 100,< 100,CC(NC(=O)c1cc(NC2COC2)ncn1)[C@@H](O)CN1CCc2ccccc2C1 (stereo partly drawn) [Compound 492],1000 to 10000
< 100,< 100,CN(C)c1nc(NC2COC2)cc(C(=O)NC[C@H](O)CN2CCc3ccccc3C2)n1 [Compound 494],101 to 1000
< 100,< 100,CN(CCO)c1nc(NC2COC2)cc(C(=O)NC[C@H](O)CN2CCc3ccccc3C2)n1 [Compound 495],101 to 1000
